Tests used:
SCD-Selp−/− mice [1] = test: cNETs in platelet-poor plasma by Imaging Flow Cytometry, SCD-Selp−/− mice; type: in vivo, mouse; details: IV 10 μmole/kg oxy-Hb with 10 mg/kg inhibitor vs oxy-Hb alone
Method: (§1) (FIG. 5A) Experimental scheme: SCD or SCD-Selp^−/− mice were IV administered 10 μmole/kg oxy-Hb (10 oxy-Hb) without or with 10 mg/kg GSDMD inhibitors LDC75591 or Disulfiram. In FIGS. 5C-5D, venous blood was processed to generate PPP and cNETs detected in PPP using Imaging Flow Cytometry. Imaging Flow Cytometry data was quantified to estimate concentration of cNETs (#cNETs/μl of plasma). In FIGS. 5B, and 5E-5F, quantitative fluorescence intravital lung microscopy (qFILM) was used to detect arrival of circulating NETs (cNETs) within the lung microcirculation. Number of cNETs entering per FOV over a 1-minute duration (#cNETs/FOV/min) were quantified. In FIGS. 5G-5J, qFILM was used to assess the absence or presence of pulmonary vaso-occlusion using the experimental strategy described in FIG. 1A. Pulmonary vaso-occlusions (PVOs) were compared between treatment groups using following two parameters: Number of PVOs per Field of View (#PVOs/FOV) and number of large PVOs (with area>1000 μm^2) per FOV. (FIG. 5B) #cNETs/FOV/min in SCD mice IV administered 10 oxy-Hb were not different from SCD-Selp^−/− mice IV administered 10 oxy-Hb. SCD IV Oxy-Hb (n=4 mice; 44 FOVs). SCD-Selp^−/− IV oxy-Hb (n=5 mice; 71 FOVs). (FIG. 5C) Plasma concentration of cNETs was not different between SCD and SCD-Selp^−/− mice (n=4 mice per group) IV administered 10 oxy-Hb. […]

SCD-Selp−/− mice [2] = test: qFILM detection of circulating NETs arriving in the lung microcirculation, SCD-Selp−/− mice; type: in vivo, mouse; details: IV 10 μmole/kg oxy-Hb with 10 mg/kg inhibitor vs oxy-Hb alone, significant
Method: as §1, with “FOV.” for “FOV. (FIG. 5B) #cNETs/FOV/min in SCD mice IV administered 10 oxy-Hb were not different from SCD-Selp^−/− mice IV administered 10 oxy-Hb. SCD IV Oxy-Hb (n=4 mice; 44 FOVs). SCD-Selp^−/− IV oxy-Hb (n=5 mice; 71 FOVs). (FIG. 5C) Plasma concentration of cNETs was not different between SCD and SCD-Selp^−/− mice (n=4 mice per group) IV administered 10 oxy-Hb.”
Quantitative fluorescence intravital lung microscopy (qFILM) has been used widely for in vivo assessment of pulmonary vasoocclusion in mice with SCD [Bennewitz M F et al., (2017); Vats R, Brzoska T, Bennewitz M F, et al. (2020); Vats R, Tutuncuoglu E, Pradhan-Sundd T, Tejero J, Shaw G D, Sundd P. (2020); Bennewitz M F, Tutuncuoglu E, Gudapati S, et al. (2020)] […]

COc1ccccc1-c1cc2n(n1)Cc1ccc(NC(C)=O)cc1OC2 [LDC7559]
Plasma concentration of cNETs (#cNETs/μl of plasma) (SCD-Selp−/− mice [1]): significantly less
#cNETs/FOV/min in the lung, less than 10 oxy-Hb alone (SCD-Selp−/− mice [2]): 4 folds

From patent US20240358721A1, “GASDERMIN-D INHIBITORS AND USES THEREOF FOR TREATING PULMONARY VASO-OCCLUSION” (UNIVERSITY OF PITTSBURGH-OF THE COMMONWEALTH SYSTEM OF …, priority 2021, published 2024)
